Reference: ChEMBL document CHEMBL1201862, “PubChem BioAssay data set” (2004)
Activity calls are given as the source filed them. Cut-off read from the data, not from the text of the source: actives have a measured IC50 and inactives only a lower limit.

Target: Envelope glycoprotein gp160 (Human immunodeficiency virus 1, UniProt Q6QLK5)
Assay: cell-free HIV fusion peptide-binding blockers – biochemical, uHTS, fluorescence dequenching, […] (AID 1986)

Chain of Envelope glycoprotein gp160 (Q6QLK5 whole entry, the tested form may be a part): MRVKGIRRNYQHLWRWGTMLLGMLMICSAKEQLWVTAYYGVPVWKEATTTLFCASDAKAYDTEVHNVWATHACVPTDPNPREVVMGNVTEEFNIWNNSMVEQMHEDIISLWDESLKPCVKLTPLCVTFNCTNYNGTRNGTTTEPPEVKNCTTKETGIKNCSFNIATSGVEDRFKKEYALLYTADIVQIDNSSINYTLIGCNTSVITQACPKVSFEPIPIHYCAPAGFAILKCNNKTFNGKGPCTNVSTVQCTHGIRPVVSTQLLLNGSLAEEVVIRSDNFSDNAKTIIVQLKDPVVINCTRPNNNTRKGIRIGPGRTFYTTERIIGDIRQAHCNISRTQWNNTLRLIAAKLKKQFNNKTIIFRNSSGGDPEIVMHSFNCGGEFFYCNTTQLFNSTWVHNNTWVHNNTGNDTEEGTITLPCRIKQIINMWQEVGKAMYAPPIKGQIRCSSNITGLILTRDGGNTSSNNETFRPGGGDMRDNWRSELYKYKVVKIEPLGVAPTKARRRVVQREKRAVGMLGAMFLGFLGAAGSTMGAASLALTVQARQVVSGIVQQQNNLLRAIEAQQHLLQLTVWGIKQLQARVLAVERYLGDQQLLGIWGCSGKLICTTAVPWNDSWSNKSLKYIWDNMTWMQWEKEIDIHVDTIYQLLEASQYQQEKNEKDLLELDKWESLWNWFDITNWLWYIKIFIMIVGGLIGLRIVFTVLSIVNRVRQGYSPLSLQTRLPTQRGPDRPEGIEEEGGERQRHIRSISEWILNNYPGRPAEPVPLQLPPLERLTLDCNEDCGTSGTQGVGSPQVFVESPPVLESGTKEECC

**Q.** CC(C)(C)c1ccc(OCC(=O)NNC(=S)NC(=O)c2ccccc2[N+](=O)[O-])c(Br)c1 was tested. Which IC50 did it give?
**A.** 28.7 µM (active)

**Q.** For NS(=O)(=O)c1cc(C(=O)NC2CCSc3ccccc32)ccc1Cl (centres undefined), which IC50 is on record?
**A.** 8.22 µM (active)

**Q.** For O=C(O)CN1C(=O)/C(=C\c2cc(Br)ccc2OCc2ccc(Cl)cc2Cl)SC1=S, which IC50 is on record?
**A.** 13.1 µM (active)

**Q.** For CCCCCC(=O)Cc1cc(O)cc2c1C(=O)Oc1cc(O)c(C(=O)O)c(CCCCC)c1O2 [PHYSODIC ACID], which IC50 is on record?
**A.** 4.1 µM (active)
